# Laboratory results taken from patent US20240384250A1, “FIBROBLAST GROWTH FACTOR 23 MODULATING COMPOUNDS” (THE UAB RESEARCH FOUNDATION, priority 2021, published 2024).
# Key:
# FGF2 binding to FGFR1c = molecular target: T1, FGF2 binding to FGFR1c (Homo sapiens, UniProt P11362); assay: Plate-based binding of paracrine FGF to Fc-FGFR1c with heparin and/or sKL; details: absence of sKL
# T1 construct: a chimeric protein consisting of the FGFR1 ectodomain and the Fc region of a human IgG; purchased R&D Systems 233-FB/CF; 658FR050
# T1 sequence (P11362 22-376 limits assumed): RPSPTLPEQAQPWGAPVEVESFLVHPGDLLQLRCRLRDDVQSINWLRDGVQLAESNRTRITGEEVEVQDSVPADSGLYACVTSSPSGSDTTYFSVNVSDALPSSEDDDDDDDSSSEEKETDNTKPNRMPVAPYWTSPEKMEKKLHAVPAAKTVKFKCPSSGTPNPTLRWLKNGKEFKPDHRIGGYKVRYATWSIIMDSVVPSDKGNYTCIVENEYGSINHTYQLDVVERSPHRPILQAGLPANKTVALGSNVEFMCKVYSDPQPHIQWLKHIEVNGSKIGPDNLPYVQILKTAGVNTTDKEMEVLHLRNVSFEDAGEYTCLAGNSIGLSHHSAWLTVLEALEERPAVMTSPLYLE
# Protocol: (§1) Proteins were coated on 96-well plates (MaxiSorp; 439454, Thermo Fisher Scientific), and proteins were added to wells in 100 μl of enzyme-linked immunosorbent assay (ELISA) coating buffer (E107, Bethyl Laboratories) with a lid placed overtop and incubated at 4° C. overnight. Plates were washed 5× with 350 μl of assay buffer (50 mM Tris [pH 7.4], 200 mM NaCl, 0.01% Tween 20) on a 50 TS microplate washer (BioTek). Plates were blocked for 1 hour in 200 μl of assay buffer with 0.5% BSA. Plates were washed as before, and proteins were incubated on plates in 100 μl of assay buffer with 0.5% BSA. Proteins or heparin was incubated in orders described in the respective figure legends. Assays using FLAG-tag-based detection were incubated with anti-FLAG coupled to HRP at 1:20,000, and assays using Fc detection were incubated with anti-human Fc coupled to HRP at 1:10,000. Plates were washed as above, and 100 μl of 3,3′,5,5′-tetramethylbenzidine (TMB) substrate (E102, Bethyl Laboratories) was added for 15 to 20 minutes until positive wells developed a dark blue color. Reactions were stopped with ELISA stop solution (E115, Bethyl Laboratories) and analyzed using the Synergy HI plate reader (BioTek) at 450 nm wavelength. […] As a control to remove background absorbance values, wells were coated with an equal amount of BSA to match the amount of protein coated in experimental wells and treated the same as experimental wells. To study the effects of sKL on the binding between paracrine FGFs and FGFRs, plates were run as above except coated with paracrine FGFs. Fc-FGFR1 was preincubated with sKL or vehicle for 60 minutes, and then the combination was added to wells and the assay was run as before.
# [1] = test system: phosphorylated ERK in HEK293T cells; assay: ERK phosphorylation in serum-starved HEK293 cells (Western blotting); format: cell-based, human; details: FGF 1.1 nM for 10 minutes, absence of sKL
# Protocol: The sample (20 μl) was loaded onto Mini-PROTEAN TGX Precast Gel 4-20% for experiments with <9 samples (4568094, Bio-Rad) or Criterion TGX Precast Gel 4-20% (5678094, Bio-Rad) for experiments with >9 samples. Gels were run in 1× Tris/Glycine/SDS buffer (1610732, Bio-Rad) at 150 V and stopped when the sample dye reached the end of the gel. Gels were removed and electrotransferred via a semi-dry cassette (1703940, Bio-Rad) in I× Tris/Glycine buffer (1610734, Bio-Rad) with 20% methanol. Gels were transferred onto polyvinylidene diflouride membranes (IPVH00010, Millipore) at 20 V for 1 hour. Membranes were then blocked in 5% dried milk with 0.5% Tween 20 diluted in Tris-buffered saline (TBST; pH 7.5) for 1 hour and probed with antibodies against specific antigens at 1:1000 in TBST with 5% dried milk. Blots were washed 3× for 5 minutes in TBST and probed with HRP-coupled secondary antibodies against specific species at 1:10,000 in TBST with 5% dried milk. Membranes were imaged on the SRX-101A X-ray film developer (Konica Minolta).
# To determine the cellular activity of paracrine FGFs, the activation/phosphorylation of ERK in HEK293 cells after treatment was studied. […] Twenty microliters of samples was loaded onto 12% SDS-PAGE gels and analyzed using Western blotting for total and phosphorylated ERK.
# FGF23 = molecular target: T2, FGF23 (Homo sapiens, UniProt Q9GZV9); assay: Plate-based binding assay, FGF23 coated, FLAG-sKL detected with anti-FLAG HRP; details: 2 mM glucosamine or 12.5 ng/ml tunicamycin for 48 hours
# T2 construct: purchased R&D Systems 2604FG025/CF (human) or 2629FG025/CF (mouse)
# T2 sequence (Q9GZV9 25-251, species assumed): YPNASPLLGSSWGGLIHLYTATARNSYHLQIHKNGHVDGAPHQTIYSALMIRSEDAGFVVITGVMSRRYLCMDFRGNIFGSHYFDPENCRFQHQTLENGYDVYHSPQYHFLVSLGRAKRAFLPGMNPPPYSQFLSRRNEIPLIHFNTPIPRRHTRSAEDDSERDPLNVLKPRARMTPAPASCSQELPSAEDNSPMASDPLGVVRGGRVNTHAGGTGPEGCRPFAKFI
# Protocol: as §1, with “Plates were washed as above, and 100 μl of 3,3′,5,5′-tetramethylbenzidine (TMB) substrate (E102, Bethyl Laboratories) was added for 15 to 20 minutes until positive wells developed a dark blue color.” left out, “To study the effects of sKL on the binding between paracrine FGFs and FGFRs, plates were run as above except coated with paracrine FGFs. Fc-FGFR1 was preincubated with sKL or vehicle for 60 minutes, and then the combination was added to wells and the assay was run as before.” left out
# FGFR1c = molecular target: T3, FGFR1c (Homo sapiens, UniProt P11362); assay: Plate-based binding assay, FGFR1c coated, FLAG-sKL detected with anti-FLAG HRP; details: 12.5 ng/ml tunicamycin for 48 hours
# T3 construct: Fc-coupled FGFR ectodomains were immobilized on protein A/G beads; purchased R&D Systems 658FR050
# Protocol: as §1, with “Plates were washed as above, and 100 μl of 3,3′,5,5′-tetramethylbenzidine (TMB) substrate (E102, Bethyl Laboratories) was added for 15 to 20 minutes until positive wells developed a dark blue color.” left out, “To study the effects of sKL on the binding between paracrine FGFs and FGFRs, plates were run as above except coated with paracrine FGFs. Fc-FGFR1 was preincubated with sKL or vehicle for 60 minutes, and then the combination was added to wells and the assay was run as before.” left out
Compound,FGF2 binding to FGFR1c (FGF2 binding to FGFR1c),ERK phosphorylation induced by FGF [1],FGF23 binding affinity of sKL in media of inhibitor-treated HEK293 cells (FGF23),FGFR1c binding of sKL in media of inhibitor-treated HEK293 cells (FGFR1c)
FGF2: recombinant human FGF2 from R&D Systems,FGFR1c bound FGF2,induced ERK phosphorylation,–,–
"N[C@H]1C(O)O[C@H](CO)[C@@H](O)[C@@H]1O (some centres unmarked) [Glucosmine, glucosamine, reference compound]",–,–,had an effect,–
tunicamycin [reference compound],–,–,much higher FGF23 binding affinity,did not affect the FGFR1c binding
